Among the data in patent US6130238A, “3-(cyclohexanoheteroarylidenyl)-2-indolinone protein tyrosine kinase inhibitors” (Sugen, Inc., priority 1998, dated 2000) are IC50 values, retold here.

Each structure is given as a SMILES string. pIC50: −log10 of the molar value.

One assay concerns the target T1, FLK-1R (Mus musculus, UniProt P35918).
T1 construct: expressed in transfected cells; host or cells: NIH3T3 C7#3 cells
The assay can be described thus: FLK-1 receptor kinase activity, cellular ELISA (NIH3T3 C7#3 cells, VEGF stimulated). The class given is cell-based. A general note: In an ELISA, binding on a coated surface is turned into a signal by an enzyme label.

Another assay concerns PDGFR. In words: PDGF-R ELISA (U1242 cells). The class given is cell-based. As to the method: (§1) IC50 refers to the amount (in micromoles, μM) of compound required to achieve 50% inhibition of the activity of the particular kinase being tested as compared to the activity of an untreated control.
(§2) The cellular/catalytic assays described herein are performed in an ELISA format. The general procedure is a follows: a compound is introduced to cells expressing the test kinase, either naturally or recombinantly, for some period of time after which, if the test kinase is a receptor, a ligand known to activate the receptor's activity is added. The cells are lysed and the lysate is transferred to the wells of an ELISA plate previously coated with a specific antibody recognizing the substrate of the enzymatic phosphorylation reaction. Non-substrate components of the cell lysate are washed away and the amount of phosphorylation on the substrate is detected with an antibody specifically recognizing phosphotyrosine compared with control cells that were not contacted with a test compound.
All cell culture media, glutamine, and fetal bovine serum can be purchased from Gibco Life Technologies (Grand Island, NY) unless otherwise specified. All cells are grown in a humid atmosphere of 90-95% air and 5-10% CO2 at 37° C. All cell lines are routinely subcultured twice a week and are negative for mycoplasma as determined by the Mycotect method (Gibco). […]

Another assay concerns the target T2, EGFR (Homo sapiens, UniProt P00533).
T2 construct: expressed in transfected cells; host or cells: NIH 3T3/C7 cell line
The assay can be described thus: EGF Receptor ELISA (NIH 3T3/C7 cells). Format: cell-based. The protocol:
as §1, §2
EGF Receptor kinase activity in cells genetically engineered to express human EGF-R can be measured as described below:
1. […]
12. The maximal phosphotyrosine signal is determined by subtracting the value of the negative controls from the positive controls. The percent inhibition of phosphotyrosine content for extract-containing wells is then calculated, after subtraction of the negative controls.

A further assay concerns the target T3, SRC (Gallus gallus, UniProt P00523).
T3 construct: made in house; host or cells: Schizosaccharomyces pombe SP200, pRSP expression plasmid; yeast from Courtneidge Laboratory (Sugen)
In words: Biochemical src assay--ELISA.
From the text: as §1
g. Biochemical src assay--ELISA
This assay is used to determine src protein kinase activity measuring phosphorylation of a biotinylated peptide as the readout.
h. Anti-src (327) mab: Schizosaccharomyces Pombe is used to express recombinant Src (Superti-Furga, et al., EMBO J., 12:2625-2634; Superti-Furga, et al., […]., 14:600-605). S. Pombe strain SP200 (h-s leul.32 ura4 ade210) is grown as described and transformations are pRSP expression plasmids are done by the lithium acetate method (Superti-Furga, supra). Cells are grown in the presence of 1 μM thiamine to repress expression from the nmtl promoter or in the absence of thiamine to induce expression.
a. Preparation of src coated ELISA plate.
(§3) c. Kinase assay procedure.
2. Add 0.08 ml Kinase Reaction Mixture per well (containing 10 μl of 10× Kinase Buffer and 10 μM (final concentration) biotin-EEEYEEYEEEYEEEYEEEY per well diluted in water.
(§4) 3. Add 10 μl of compound diluted in water containing 10% DMSO and pre-incubate for 15 minutes at room temperature.
4. Start kinase reaction by adding 10 μl/well of 0.05 mM ATP in water (5 μM ATP final).
5. Shake ELISA plate for 15 min. at room temperature.
10. […]

A further assay concerns the target T4, LCK (Homo sapiens, UniProt P06239).
T4 construct: made in house; host or cells: Schizosaccharomyces pombe SP200, pRSP expression plasmid
The assay can be described thus: Biochemical lck Assay--ELISA.
From the text: as §1
h. Biochemical lck Assay--ELISA
This assay is used to determine lck protein kinase activities measuring phosphorylation of GST-.zeta. as the readout.
a. Yeast transformed with lck. Schizosaccharomyces Pombe is used to express recombinant Lck (Superti-Furga, et al., EMBO J, 12:2625-2634; Superti-Furga, et al., Nature Biotech., 14:600-605). S. Pombe strain SP200 (h-s leul.32 ura4 ade210) is grown as described and transformations with pRSP expression plasmids are done by the lithium acetate method (Superti-Furga, supra). Cells are grown in the presence of 1 μM thiamine […].
a. Preparation of Lck coated ELISA plate.
as §3
2. Add 0.08 ml Kinase Reaction Mixture per well (containing 10 μl of 10× Kinase Buffer and 2 μg GST-.zeta. per well diluted with water).
as §4
4. Start kinase reaction by adding 10 μl/well of 0.1 mM ATP in water (10 μM ATP final).
5. Shake ELISA plate for 60 min. at room temperature.
14. Develop with Turbo TMB.

A further assay deals with FAK (Homo sapiens, UniProt Q05397). In words: FAK kinase inhibition. Format: biochemical.
From the text: as §1

For assay [1], the system named is HUV-EC-C cells. In words: HUV-EC-C Assay, VEGF (3H-thymidine incorporation). Format: cell-based, human. As to conditions: read-out: HUV-EC-C (ATCC) VEGF.
From the text: as §1
(§5) The cellular/biologic assays described herein measure the amount of DNA made in response to activation of a test kinase, which is a general measure of a proliferative response. The general procedure for this assay is as follows: a compound is introduced to cells expressing the test kinase, either naturally or recombinantly, for some period of time after which, if the test kinase is a receptor, a ligand known to activate the receptor's activity is added. After incubation at least overnight, a DNA labeling reagent such as Bromodeoxy-uridine (BrdU) or 3H-thymidine is added. The amount of labeled DNA is detected with either an anti-BrdU antibody or by measuring radioactivity and is compared to control cells not contacted with a test compound.
(§6) The following protocol may also be used to measure a compound's activity against PDGF-R, FGF-R, VEGF, aFGF or Flk-1/KDR, all of which are naturally expressed by HUV-EC cells.
1. […]

For assay [2], the system named is HUV-EC-C cells. The assay can be described thus: HUV-EC-C Assay, aFGF (3H-thymidine incorporation). Format: cell-based, human. As to conditions: read-out: HUV-EC-C (ATCC) aFGF.
From the text: as §1, §5, §6
1. […]
(In general: Incorporation of labelled thymidine or its analogues reports DNA synthesis.)

T2 sequence (P00533 25-1210): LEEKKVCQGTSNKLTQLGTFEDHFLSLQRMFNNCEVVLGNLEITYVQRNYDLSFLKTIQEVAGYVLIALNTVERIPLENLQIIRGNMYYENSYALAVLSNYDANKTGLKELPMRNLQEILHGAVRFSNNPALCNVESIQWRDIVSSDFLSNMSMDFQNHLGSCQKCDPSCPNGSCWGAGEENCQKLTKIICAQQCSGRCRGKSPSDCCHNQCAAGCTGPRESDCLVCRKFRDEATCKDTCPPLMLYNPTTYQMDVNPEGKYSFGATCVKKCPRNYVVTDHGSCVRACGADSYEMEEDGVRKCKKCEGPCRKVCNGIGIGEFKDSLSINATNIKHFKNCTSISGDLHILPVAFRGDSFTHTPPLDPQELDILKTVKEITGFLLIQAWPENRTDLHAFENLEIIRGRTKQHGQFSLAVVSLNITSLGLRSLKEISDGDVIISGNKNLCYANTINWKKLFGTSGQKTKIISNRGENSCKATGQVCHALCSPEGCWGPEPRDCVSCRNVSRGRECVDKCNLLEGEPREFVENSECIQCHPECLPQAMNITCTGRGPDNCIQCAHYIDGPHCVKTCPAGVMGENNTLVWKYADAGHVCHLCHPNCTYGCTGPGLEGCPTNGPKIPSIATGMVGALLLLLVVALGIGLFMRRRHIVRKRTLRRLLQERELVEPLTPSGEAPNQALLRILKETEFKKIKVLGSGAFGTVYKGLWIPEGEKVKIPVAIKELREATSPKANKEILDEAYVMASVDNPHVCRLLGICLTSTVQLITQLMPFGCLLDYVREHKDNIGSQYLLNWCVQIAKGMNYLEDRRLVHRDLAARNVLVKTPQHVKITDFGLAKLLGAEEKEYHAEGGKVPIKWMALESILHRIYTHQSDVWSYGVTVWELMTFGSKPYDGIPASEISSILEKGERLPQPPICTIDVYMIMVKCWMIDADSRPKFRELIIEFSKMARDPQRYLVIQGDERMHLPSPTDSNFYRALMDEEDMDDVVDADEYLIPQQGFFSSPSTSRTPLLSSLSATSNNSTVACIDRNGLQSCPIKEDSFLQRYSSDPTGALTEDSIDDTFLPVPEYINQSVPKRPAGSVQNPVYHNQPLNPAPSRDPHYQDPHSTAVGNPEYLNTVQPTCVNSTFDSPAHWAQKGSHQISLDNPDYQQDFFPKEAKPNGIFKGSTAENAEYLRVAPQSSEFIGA
T1 sequence (P35918 20-1345): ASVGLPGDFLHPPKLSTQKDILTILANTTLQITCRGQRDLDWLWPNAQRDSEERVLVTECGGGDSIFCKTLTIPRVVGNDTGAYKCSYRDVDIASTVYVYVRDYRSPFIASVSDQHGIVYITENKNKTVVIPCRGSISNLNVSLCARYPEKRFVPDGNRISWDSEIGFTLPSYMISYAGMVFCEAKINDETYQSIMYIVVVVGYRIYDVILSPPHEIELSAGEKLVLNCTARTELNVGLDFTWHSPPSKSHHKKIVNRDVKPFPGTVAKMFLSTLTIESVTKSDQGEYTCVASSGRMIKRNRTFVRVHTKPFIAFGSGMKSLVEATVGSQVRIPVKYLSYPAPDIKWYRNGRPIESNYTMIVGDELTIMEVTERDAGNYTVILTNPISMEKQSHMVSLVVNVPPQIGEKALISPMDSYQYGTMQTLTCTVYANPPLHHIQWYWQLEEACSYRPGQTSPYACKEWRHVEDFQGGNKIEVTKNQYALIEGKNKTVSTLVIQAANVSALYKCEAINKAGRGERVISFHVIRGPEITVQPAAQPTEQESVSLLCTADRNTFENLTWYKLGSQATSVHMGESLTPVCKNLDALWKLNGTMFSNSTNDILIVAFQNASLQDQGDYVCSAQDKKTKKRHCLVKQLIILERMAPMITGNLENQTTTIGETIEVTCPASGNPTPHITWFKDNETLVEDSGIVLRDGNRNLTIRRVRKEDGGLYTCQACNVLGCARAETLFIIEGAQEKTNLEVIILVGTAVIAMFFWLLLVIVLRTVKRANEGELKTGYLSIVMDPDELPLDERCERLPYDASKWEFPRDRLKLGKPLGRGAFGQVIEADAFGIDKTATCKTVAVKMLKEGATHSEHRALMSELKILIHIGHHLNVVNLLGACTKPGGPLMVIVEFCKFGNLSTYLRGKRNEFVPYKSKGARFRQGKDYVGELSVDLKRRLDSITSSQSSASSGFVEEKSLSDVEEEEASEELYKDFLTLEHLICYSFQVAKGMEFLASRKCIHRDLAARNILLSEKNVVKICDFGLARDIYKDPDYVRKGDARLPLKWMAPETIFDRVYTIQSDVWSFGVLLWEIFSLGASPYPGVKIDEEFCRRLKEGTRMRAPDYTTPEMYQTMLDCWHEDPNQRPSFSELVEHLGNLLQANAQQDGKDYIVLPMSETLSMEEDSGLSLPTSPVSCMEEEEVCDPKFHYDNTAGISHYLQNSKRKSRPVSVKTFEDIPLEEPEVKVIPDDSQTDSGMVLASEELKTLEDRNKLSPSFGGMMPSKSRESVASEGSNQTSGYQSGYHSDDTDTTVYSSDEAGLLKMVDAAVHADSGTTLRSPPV
FAK, sequence (Q05397 whole entry, species assumed): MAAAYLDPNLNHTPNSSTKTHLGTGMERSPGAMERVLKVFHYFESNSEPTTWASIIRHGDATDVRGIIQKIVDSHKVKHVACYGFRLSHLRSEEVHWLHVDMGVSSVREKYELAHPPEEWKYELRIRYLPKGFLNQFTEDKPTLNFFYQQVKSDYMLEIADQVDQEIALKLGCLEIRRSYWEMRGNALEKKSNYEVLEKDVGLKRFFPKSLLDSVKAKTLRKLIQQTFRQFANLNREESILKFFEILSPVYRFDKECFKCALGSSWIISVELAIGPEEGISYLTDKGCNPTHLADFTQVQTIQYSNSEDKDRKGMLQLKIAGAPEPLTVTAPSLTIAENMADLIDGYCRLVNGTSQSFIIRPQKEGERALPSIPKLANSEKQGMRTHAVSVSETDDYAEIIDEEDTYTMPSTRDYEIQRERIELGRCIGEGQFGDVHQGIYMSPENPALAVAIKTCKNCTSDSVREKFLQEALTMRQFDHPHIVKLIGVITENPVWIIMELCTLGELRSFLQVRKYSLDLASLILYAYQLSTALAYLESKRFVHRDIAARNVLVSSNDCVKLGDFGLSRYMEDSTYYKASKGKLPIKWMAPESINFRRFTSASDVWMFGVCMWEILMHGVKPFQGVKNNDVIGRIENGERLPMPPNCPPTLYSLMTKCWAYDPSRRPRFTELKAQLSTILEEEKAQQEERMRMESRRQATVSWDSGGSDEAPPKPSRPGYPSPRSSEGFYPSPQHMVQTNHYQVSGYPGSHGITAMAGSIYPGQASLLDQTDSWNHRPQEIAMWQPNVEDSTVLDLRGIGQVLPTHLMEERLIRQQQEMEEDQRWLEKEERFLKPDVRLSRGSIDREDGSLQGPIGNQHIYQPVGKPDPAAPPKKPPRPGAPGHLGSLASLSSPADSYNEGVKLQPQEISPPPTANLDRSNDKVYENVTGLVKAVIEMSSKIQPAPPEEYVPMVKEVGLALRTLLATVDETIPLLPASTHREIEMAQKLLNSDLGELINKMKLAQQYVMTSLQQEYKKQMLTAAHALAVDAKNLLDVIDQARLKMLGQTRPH
T4 sequence (P06239 whole entry, species assumed): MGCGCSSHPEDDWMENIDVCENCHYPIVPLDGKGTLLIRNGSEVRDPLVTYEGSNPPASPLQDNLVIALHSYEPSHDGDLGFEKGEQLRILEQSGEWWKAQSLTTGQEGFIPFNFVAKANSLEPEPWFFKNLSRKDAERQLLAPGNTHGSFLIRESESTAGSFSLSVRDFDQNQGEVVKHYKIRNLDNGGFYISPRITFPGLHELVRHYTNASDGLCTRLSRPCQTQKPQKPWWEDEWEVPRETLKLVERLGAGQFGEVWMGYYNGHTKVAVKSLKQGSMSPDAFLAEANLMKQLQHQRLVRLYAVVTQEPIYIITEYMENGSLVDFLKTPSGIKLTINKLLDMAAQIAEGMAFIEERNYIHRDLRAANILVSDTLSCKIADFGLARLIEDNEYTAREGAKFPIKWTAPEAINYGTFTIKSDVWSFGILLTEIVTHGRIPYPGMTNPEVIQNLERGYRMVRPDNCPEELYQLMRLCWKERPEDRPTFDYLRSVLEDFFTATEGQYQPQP

Turning to `CN(C)S(=O)(=O)c1ccc2c(c1)C(=CC1=CC3=C(CCCC3)C1)C(=O)N2` [3-(4,5,6,7-tetrahydroinden-2-methyldenyl)-5-[N,N-dimethylaminosulfonyl]2-indolinone], the pIC50 was < 4.00 against FLK-1R; < 4.00 in the assay on PDGFR; < 4.00 at EGFR; 7.00 on SRC; 6.30 against LCK; < 5.00 against FAK.
Turning to `NS(=O)(=O)c1ccc2c(c1)C(=CC1=CC3=C(CCCC3)C1)C(=O)N2` [3-(4,5,6,7-tetrahydroinden-2-methylidenyl)-5-[aminosulfonyl]-2-indolinone], the pIC50 on FLK-1R was < 4.00; in the assay on PDGFR it was 6.00; at EGFR it was < 4.00; with HUV-EC-C cells [1] (Homo sapiens), 6.19; with HUV-EC-C cells [1], 5.97; with HUV-EC-C cells [2] (Homo sapiens), 5.62. For the same compound, the pIC50 in the assay with HUV-EC-C cells [2] was 5.48; against SRC, 6.10; on LCK, 6.15; at FAK, < 5.00.
